Measured values taken from the OligoGym collection.
Values joined by “and” are separate entries in the source; they are usually repeats but may differ in a detail not shown here. Equal values may be shown once. After the bases stand the sugars from the 5' end (letter, count) and the backbone: PS all phosphorothioate, else s phosphorothioate and o phosphodiester by linkage. Methylation of C is not given here. e = 2'-O-(2-methoxyethyl) (MOE); k = constrained ethyl (cEt); d = 2'-deoxy (DNA)

What follows are sequences tested against IRF4. Conditions: ASO, MM.1R, 0.0625 µM.

Row | Sequence | target mRNA inhibition
1 | GGAAGTTTACACTGGA (sugars k3 d10 k3, PS) | 41% and 42%
2 | GGATTGATGTGATAGC (sugars k3 d10 k3, PS) | 7% and 24%
3 | GGGTATTTATAACCGG (sugars k3 d10 k3, PS) | -16% and 5% and 1%

Same assay, conditions: ASO, MM.1R, 0.074 µM

Row | Sequence | target mRNA inhibition [%]
4 | GGGTATTTATAACCGG (sugars k3 d10 k3, PS) | -4

Same assay, conditions: ASO, MM.1R, 0.222 µM

Row | Sequence | target mRNA inhibition [%]
5 | GGGTATTTATAACCGG (sugars k3 d10 k3, PS) | -19

Same assay, conditions: ASO, MM.1R, 0.25 µM

Row | Sequence | target mRNA inhibition
6 | GGAAGTTTACACTGGA (sugars k3 d10 k3, PS) | 66% and 68%
7 | GGATTGATGTGATAGC (sugars k3 d10 k3, PS) | 24% and 20%

Same assay, conditions: ASO, MM.1R, 0.666 µM

Row | Sequence | target mRNA inhibition
8 | GGAAGTTTACACTGGA (sugars k3 d10 k3, PS) | 79% and 94%
9 | GGGTATTTATAACCGG (sugars k3 d10 k3, PS) | -4%

Same assay, conditions: ASO, MM.1R, 1 µM

Row | Sequence | target mRNA inhibition
10 | GCCCGCAAAAGAAACG (sugars k3 d10 k3, PS) | 2%
11 | GCGCTCTCTCTGTAAC (sugars k3 d10 k3, PS) | -7%
12 | GCTCATGGCTGATAAT (sugars k3 d10 k3, PS) | -17%
13 | GCTCCCGACACGCGCC (sugars k3 d10 k3, PS) | 3% and 19%
14 | GCTGAGAGTTCAGGTC (sugars k3 d10 k3, PS) | 7%
15 | GCTGATAATTAATCTG (sugars k3 d10 k3, PS) | -9%
16 | GGAAGTTTACACTGGA (sugars kddddddddddkekek, PS) | 33%
17 | GGAGCTAGTTTTATGT (sugars k3 d10 k3, PS) | -28%
18 | GGATTGATGTGATAGC (sugars k3 d10 k3, PS) | 59% and 60%
19 | GGCACATCAATGTTTT (sugars kkdddddddddkdkdk, PS) | 26% and 16%
20 | GGCACATCAATGTTTT (sugars kkdddddddddkekek, PS) | 23% and 19%
21 | GGCATCATGTAGTTGT (sugars k3 d10 k3, PS) | -1%
22 | GGCCTTAATGGTGATT (sugars k3 d10 k3, PS) | -16%
23 | GGCGCATAGGTCCTTC (sugars k3 d10 k3, PS) | -7%
24 | GGCTCTGCAAACGACA (sugars k3 d10 k3, PS) | 0%
25 | GGCTGAAACGGTCAGC (sugars k3 d10 k3, PS) | -27%
26 | GGGATTATATACTGGT (sugars k2 d9 e3 k2, PS) | 35%
27 | GGGATTATATACTGGT (sugars kddddddddddkekek, PS) | 34%
28 | GGGATTATATACTGGT (sugars kkddddddddddkeke, PS) | 46%
29 | GGGATTATATACTGGT (sugars kkdddddddddekeke, PS) | 34%
30 | GGGTATTTATAACCGG (sugars k3 d10 k3, PS) | 1% and 7% and 26%
31 | GGGTGGTAGAATGTGA (sugars k3 d10 k3, PS) | 33%
32 | GGTAGTAGACCACAGT (sugars k3 d10 k3, PS) | 23%
33 | GGTCAACACTTGGAGA (sugars k3 d10 k3, PS) | -23%
34 | GGTCTGAGTTGTACAG (sugars k3 d10 k3, PS) | 20%
35 | GGTGAGAGACGAAAAC (sugars k3 d10 k3, PS) | -16%

Same assay, conditions: ASO, MM.1R, 2 µM

Row | Sequence | target mRNA inhibition
36 | GGAAGTTTACACTGGA (sugars k3 d10 k3, PS) | 95% and 98%
37 | GGGTATTTATAACCGG (sugars k3 d10 k3, PS) | 9%

Same assay, conditions: ASO, MM.1R, 4 µM

Row | Sequence | target mRNA inhibition
38 | GGAAGTTTACACTGGA (sugars k3 d10 k3, PS) | 91%
39 | GGATTGATGTGATAGC (sugars k3 d10 k3, PS) | 88%
40 | GGGTATTTATAACCGG (sugars k3 d10 k3, PS) | 12% and 24% and 34%

Same assay, conditions: ASO, SK-MEL-28, 4 µM

Row | Sequence | target mRNA inhibition [%]
41 | GCATTTTCCAGAAAAT (sugars k4 d8 k4, PS) | 37
42 | GCCAAAGAGCCCAATT (sugars k3 d10 k3, PS) | 33
43 | GCCAAAGTGACTTAAT (sugars k3 d10 k3, PS) | 70
44 | GCCAAGTTGAAGACAC (sugars k3 d10 k3, PS) | 57
45 | GCCACATTAGCAATTA (sugars k3 d10 k3, PS) | 8
46 | GCCCAAAGGCTCCCGA (sugars k3 d10 k3, PS) | 11
47 | GCCCAAGCCTTGAAGA (sugars k3 d10 k3, PS) | 15
48 | GCCCAATACATATCCA (sugars k3 d10 k3, PS) | 58
49 | GCCCAGCAAGAGGCAC (sugars k3 d10 k3, PS) | 7
50 | GCCCAGCTAGCGCGCA (sugars k3 d10 k3, PS) | 29
51 | GCCGAAGCATTTTATC (sugars k3 d10 k3, PS) | 29
52 | GCCGAGATATAAATAG (sugars k3 d10 k3, PS) | 40
53 | GCCGCCCTCCAGGTTC (sugars k3 d10 k3, PS) | 49
54 | GCCGGCCTGGCCCTTC (sugars k3 d10 k3, PS) | -14
55 | GCCTAGGACTAAGGAC (sugars k3 d10 k3, PS) | 33
56 | GCCTTGGACGGCCCCG (sugars k3 d10 k3, PS) | 23
57 | GCGCAAAACCCCTCAA (sugars k3 d10 k3, PS) | 22
58 | GCGCATAGGTCCTTCA (sugars k3 d10 k3, PS) | 63
59 | GCGCATTTCAGTAAAT (sugars k3 d10 k3, PS) | 33
60 | GCGCGGACGCACGGAG (sugars k3 d10 k3, PS) | 2
61 | GCGGAGCATCAACAAA (sugars k3 d10 k3, PS) | 30
62 | GCGGATAGATCTGTGG (sugars k3 d10 k3, PS) | 55
63 | GCTAACTGGCCTCAAA (sugars k3 d10 k3, PS) | 9
64 | GCTACGCAATCTTCTG (sugars k3 d10 k3, PS) | 58
65 | GCTAGATAGCATTCTT (sugars k3 d10 k3, PS) | 56
66 | GCTCACTAAGCTTGAT (sugars k3 d10 k3, PS) | 56
67 | GCTCAGCGCAGATGGG (sugars k3 d10 k3, PS) | -2

Row | Sequence | target mRNA inhibition [%]
68 | GCTCATCCCGTCCAGC (sugars k3 d10 k3, PS) | 15
69 | GCTGAACTGTGTAATG (sugars k3 d10 k3, PS) | 58
70 | GCTGAATGCTCTCCAT (sugars k3 d10 k3, PS) | 52
71 | GCTGATGGAGAAACGA (sugars k3 d10 k3, PS) | 7
72 | GCTGTCGATCTGGTCG (sugars k3 d10 k3, PS) | 9
73 | GCTGTCGATCTGGTCG (sugars k4 d8 k4, PS) | 6
74 | GCTTCCCGTTGCCGCA (sugars k3 d10 k3, PS) | 18
75 | GGAAAGAGGCACCCTC (sugars k3 d10 k3, PS) | 28
76 | GGAAGCACTGGCATTG (sugars k3 d10 k3, PS) | 49
77 | GGAAGTTTACACTGGA (sugars k3 d10 k3, PS) | 85
78 | GGACAGCCAAACAAAC (sugars k3 d10 k3, PS) | 7
79 | GGACCTGGTCCAGGTT (sugars k3 d10 k3, PS) | -2
80 | GGACCTGGTCCAGGTT (sugars k4 d8 k4, PS) | -28
81 | GGACGAACGCGCAAAA (sugars k3 d10 k3, PS) | 35
82 | GGAGAAACGAGCCAGT (sugars k3 d10 k3, PS) | 47
83 | GGAGAAGTCCCGTGGA (sugars k3 d10 k3, PS) | 59
84 | GGAGAATTAAGAAGAC (sugars k3 d10 k3, PS) | 32
85 | GGAGATCCGGCAGCCC (sugars k3 d10 k3, PS) | 23
86 | GGAGTACCCGCAGAGA (sugars k3 d10 k3, PS) | 25
87 | GGATGCCACCATCCCA (sugars k3 d10 k3, PS) | -5
88 | GGCAACCATTTTCACA (sugars k3 d10 k3, PS) | -17
89 | GGCAACCTGCATTTGC (sugars k3 d10 k3, PS) | -13
90 | GGCAAGTTCTGCTGTC (sugars k3 d10 k3, PS) | 58
91 | GGCACAAGCATAAAAG (sugars k3 d10 k3, PS) | 1
92 | GGCACAGACATACCTA (sugars k3 d10 k3, PS) | 48
93 | GGCACAGCCGTCCGCC (sugars k3 d10 k3, PS) | 11
94 | GGCACTACTTCCAAAA (sugars k3 d10 k3, PS) | 31

Row | Sequence | target mRNA inhibition [%]
95 | GGCAGACCTTATGCTT (sugars k3 d10 k3, PS) | 21
96 | GGCAGCACCGTGTGGA (sugars k3 d10 k3, PS) | 53
97 | GGCAGTTCTTTCAGCA (sugars k3 d10 k3, PS) | 37
98 | GGCCACCGACTCTTTT (sugars k3 d10 k3, PS) | 13
99 | GGCCGCCGTGAGCTTG (sugars k3 d10 k3, PS) | 3
100 | GGCCGGCCCGGGCGCA (sugars k3 d10 k3, PS) | 1
101 | GGCCTGGAGGTGACGC (sugars k3 d10 k3, PS) | 41
102 | GGCCTTGGAGCCCAAA (sugars k3 d10 k3, PS) | 20
103 | GGCCTTTACAAAGAAC (sugars k3 d10 k3, PS) | -19
104 | GGCGGATAGATCTGTG (sugars k3 d10 k3, PS) | 51
105 | GGCTAATGAAATGTCA (sugars k3 d10 k3, PS) | 64
106 | GGCTCATGGACATCTG (sugars k3 d10 k3, PS) | 36
107 | GGCTGATAATTAATCT (sugars k3 d10 k3, PS) | 47
108 | GGGAACAAAAGGTTCC (sugars k3 d10 k3, PS) | -11
109 | GGGAATCCTTAATTAT (sugars k3 d10 k3, PS) | 12
110 | GGGCACAAGCATAAAA (sugars k3 d10 k3, PS) | 20
111 | GGGCACCCCGCCCCGA (sugars k3 d10 k3, PS) | 1
112 | GGGCAGGTTTCATTTC (sugars k3 d10 k3, PS) | 32
113 | GGGCTGTCCCTAGTGC (sugars k3 d10 k3, PS) | -9
114 | GGGTAAGCACTGAGGC (sugars k3 d10 k3, PS) | 61
115 | GGGTATTTATAACCGG (sugars k3 d10 k3, PS) | 59
116 | GGTAATCTTCTGGATT (sugars k3 d10 k3, PS) | 30
117 | GGTCAAAAAGATGCAG (sugars k3 d10 k3, PS) | 51
118 | GGTCATACCCTGGATC (sugars k3 d10 k3, PS) | 49
119 | GGTGTGTAAGGTCTGA (sugars k3 d10 k3, PS) | 41
